What all share (format): cell-based
Assay [1] addresses T1, human GIP receptor (Homo sapiens, UniProt P48546).
T1 sequence (P48546 22-466): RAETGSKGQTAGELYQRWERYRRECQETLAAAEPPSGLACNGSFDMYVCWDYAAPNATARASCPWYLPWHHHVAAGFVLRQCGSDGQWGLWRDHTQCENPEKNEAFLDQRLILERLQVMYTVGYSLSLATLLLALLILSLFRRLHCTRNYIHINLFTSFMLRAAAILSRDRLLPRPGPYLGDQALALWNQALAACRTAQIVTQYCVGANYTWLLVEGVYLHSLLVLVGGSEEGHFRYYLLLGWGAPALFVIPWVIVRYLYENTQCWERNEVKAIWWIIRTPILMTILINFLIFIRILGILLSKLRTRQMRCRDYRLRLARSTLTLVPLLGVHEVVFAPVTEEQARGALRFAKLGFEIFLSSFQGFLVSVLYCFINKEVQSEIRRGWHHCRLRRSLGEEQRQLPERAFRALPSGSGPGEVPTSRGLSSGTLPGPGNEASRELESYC
Kind of assay: cAMP agonism (CisBio cAMP Dynamic 2 HTRF assay). The following applies: HEK293, read-out: cAMP agonism, % Efficacy, Table 1C, HEK-293 cells. The procedure:
To test for agonistic properties at the GIP receptor, compounds were diluted and added to cells as described above and incubated for 30 min at 37° C. The resulting increase in intracellular cAMP was determined using the CisBio cAMP Dynamic 2 HTRF Assay Kit as described above.
For orientation: TR-FRET usually uses a lanthanide donor and a delayed reading to cut background.

Assay [2] addresses T2, GLP1 receptor (GLP1R) (Homo sapiens, UniProt P43220).
T2 construct: expressed in transfected cells; host or cells: COS-7 (transient)
Kind of assay: cAMP assay - selectivity, antagonism at GLP1 receptor. To be noted: Table 3A. The protocol: (§1) Transient transfected COS-7 cells expressing the either of the GLP1 receptor (GLP1R), GLP2 receptor (GLP2R), glucagon receptor (GcgR) or secretin receptor (SCTR) were seeded in white 96-well plates with a density of 3.5*10^4/well. The day after, the cells were washed twice with Hepes buffered saline (HBS) buffer and incubated with HBS and 1 mM 3-isobutyl-1-methylxanthine (IBMX) for 30 min at 37° C. To test for agonistic properties, ligands were added and incubated for 30 min at 37° C. In order to test for antagonistic properties, the cells were preincubated with the antagonists for 10 min prior to the addition the natural agonist for the expressed receptor (GLP1 for GLP1R expressing cells, GLP2 for GLP2R expressing cells, glucagon for the GcgR and secretin for the SCTR) and subsequent incubated for 20 additional min. […] The HitHunter™ cAMP XS assay (DiscoveRx) was carried out according to the manufacturer's instructions.
For orientation: Cyclic AMP is a second messenger, typically raised through Gs and lowered through Gi signalling.

Assay [3] addresses T3, glucagon receptor (GcgR) (Homo sapiens, UniProt P47871).
T3 construct: expressed in transfected cells; host or cells: COS-7 (transient)
In words: cAMP assay - selectivity, antagonism at glucagon receptor. The following applies: Table 3A; COS-7 cells; agonist glucagon at 50-80% of maximal cAMP. The protocol: as §1

The target of assay [4] is T4, GLP2 receptor (GLP2R) (Homo sapiens, UniProt O95838).
T4 construct: expressed in transfected cells; host or cells: COS-7 (transient)
T4 sequence (O95838 1-553): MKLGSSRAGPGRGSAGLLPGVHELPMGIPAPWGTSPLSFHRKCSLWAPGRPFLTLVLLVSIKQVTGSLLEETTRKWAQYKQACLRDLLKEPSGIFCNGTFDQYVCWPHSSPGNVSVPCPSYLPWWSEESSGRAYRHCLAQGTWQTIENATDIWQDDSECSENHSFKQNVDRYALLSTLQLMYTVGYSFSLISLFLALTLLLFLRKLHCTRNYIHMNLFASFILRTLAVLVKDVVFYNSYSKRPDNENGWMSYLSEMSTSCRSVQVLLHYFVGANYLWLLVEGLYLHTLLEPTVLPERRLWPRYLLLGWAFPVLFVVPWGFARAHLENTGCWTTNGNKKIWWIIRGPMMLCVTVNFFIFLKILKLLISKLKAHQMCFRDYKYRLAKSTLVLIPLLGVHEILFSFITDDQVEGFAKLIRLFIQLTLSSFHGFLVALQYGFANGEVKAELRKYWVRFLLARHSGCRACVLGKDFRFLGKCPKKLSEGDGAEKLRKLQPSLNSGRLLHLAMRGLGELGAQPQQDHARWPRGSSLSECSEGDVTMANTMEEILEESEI
In words: cAMP assay - selectivity, antagonism at GLP2 receptor. To be noted: Table 3B; COS-7 cells; agonist GLP2. The procedure: as §1

The target of assay [5] is T5, secretin receptor (SCTR) (Homo sapiens, UniProt P47872).
T5 construct: expressed in transfected cells; host or cells: COS-7 (transient)
Kind of assay: cAMP assay - selectivity, antagonism at secretin receptor. To be noted: Table 3B; COS-7 cells; agonist secretin. The protocol: as §1

Assay [6] has as its target T1, human GIP receptor. In words: cAMP antagonism (CisBio cAMP Dynamic 2 HTRF assay). Also noted: pCMV-Script vector. The method in brief: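 Four-parameter fits of cAMP dose-response gave pIC50. cAMP fall was quantified by HTRF competition, ratio 665/620 nm after 60 min at room temperature, against a cAMP standard curve.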
Assay [7] addresses T1, human GIP receptor. Kind of assay: cAMP accumulation, antagonism (DiscoveRx HitHunter cAMP XS assay). The arrangement: host or cells: COS-7 (transient, calcium phosphate; pCMV-Script vector). The following applies: cAMP antagonism, nM (IC50), Table 1B; DiscoveRx; transiently transfected COS-7 cells. The method in brief:
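Transiently transfected COS-7 cells expressing human GIP receptor, pretreated with 1 mM IBMX in HBS 30 min at 37 °C. Agonism: ligand 30 min at 37 °C; antagonism: 10 min antagonist preincubation, then GIP at 50-80% maximal response for 20 min. cAMP measured by HitHunter cAMP XS.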

Assay [8] has as its target T1, human GIP receptor. Kind of assay: cAMP accumulation, agonism (DiscoveRx HitHunter cAMP XS assay). The arrangement: host or cells: COS-7 (transient, calcium phosphate; pCMV-Script vector). To be noted: COS-7, read-out: cAMP agonism, Emax. The method in brief:
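cAMP accumulation measured by HitHunter cAMP XS in COS-7 cells transiently expressing human GIP receptor, after 30 min in HBS with 1 mM IBMX at 37 °C. Antagonists preincubated 10 min before GIP giving 50-80% of maximum, then 20 min more; agonist mode used 30 min ligand exposure.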

*1 amine or outer side, *2 acyl side, *3 side chain or, on linkers, in order; H or OH if unused. Where a SMILES comes first, the peptide text is derived from it. Side-chain parts run from the residue outwards. The star is where a group is joined. C16 diacid = O=C(O)CCCCCCCCCCCCCCC(=O)*; γGlu = O=C(O)[C@H](CCC(=O)[*:2])N[*:1]; AEEA = NCCOCCOCC(=O)O

T2 sequence (P43220 24-463, species assumed): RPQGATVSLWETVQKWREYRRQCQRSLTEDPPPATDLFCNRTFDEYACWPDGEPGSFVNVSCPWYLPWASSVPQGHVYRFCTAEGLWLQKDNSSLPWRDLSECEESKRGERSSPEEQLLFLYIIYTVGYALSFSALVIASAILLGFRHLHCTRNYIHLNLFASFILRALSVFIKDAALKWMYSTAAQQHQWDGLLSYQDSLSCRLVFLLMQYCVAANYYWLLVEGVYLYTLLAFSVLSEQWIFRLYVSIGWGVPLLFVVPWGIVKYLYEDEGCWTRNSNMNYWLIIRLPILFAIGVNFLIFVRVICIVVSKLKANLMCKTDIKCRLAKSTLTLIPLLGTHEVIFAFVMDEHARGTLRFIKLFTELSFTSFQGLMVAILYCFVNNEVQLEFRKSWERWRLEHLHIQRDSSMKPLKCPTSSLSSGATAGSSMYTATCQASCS
T3 sequence (P47871 26-477, species assumed): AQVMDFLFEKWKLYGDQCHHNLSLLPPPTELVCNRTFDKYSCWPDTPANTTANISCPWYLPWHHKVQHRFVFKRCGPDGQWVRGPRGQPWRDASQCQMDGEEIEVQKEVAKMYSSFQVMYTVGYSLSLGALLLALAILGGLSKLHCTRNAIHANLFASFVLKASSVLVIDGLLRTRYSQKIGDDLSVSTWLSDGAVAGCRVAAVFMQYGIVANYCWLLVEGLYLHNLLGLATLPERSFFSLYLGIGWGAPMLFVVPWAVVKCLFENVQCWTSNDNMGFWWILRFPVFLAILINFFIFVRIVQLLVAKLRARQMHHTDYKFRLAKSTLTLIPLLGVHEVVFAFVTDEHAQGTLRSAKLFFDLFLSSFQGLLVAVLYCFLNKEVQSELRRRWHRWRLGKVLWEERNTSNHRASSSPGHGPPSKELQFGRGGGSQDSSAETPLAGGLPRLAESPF
T5 sequence (P47872 23-440, species assumed): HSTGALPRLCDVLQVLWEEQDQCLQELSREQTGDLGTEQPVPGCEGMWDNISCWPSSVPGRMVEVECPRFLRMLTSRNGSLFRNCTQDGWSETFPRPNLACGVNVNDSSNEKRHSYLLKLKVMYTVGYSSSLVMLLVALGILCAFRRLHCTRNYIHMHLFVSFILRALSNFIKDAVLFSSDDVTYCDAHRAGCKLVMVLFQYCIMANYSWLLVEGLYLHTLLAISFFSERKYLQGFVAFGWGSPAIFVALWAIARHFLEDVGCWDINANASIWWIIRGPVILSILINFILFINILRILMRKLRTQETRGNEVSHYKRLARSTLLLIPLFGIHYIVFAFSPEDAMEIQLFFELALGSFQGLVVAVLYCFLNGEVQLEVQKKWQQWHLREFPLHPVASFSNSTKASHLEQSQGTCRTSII

As to `CC[C@H](C)[C@H](NC(=O)[C@H](CO)NC(=O)[C@H](Cc1ccc(O)cc1)NC(=O)[C@H](CC(=O)O)NC(=O)[C@H](CO)NC(=O)[C@@H](NC(=O)[C@H](Cc1ccccc1)NC(=O)[C@@H](NC(=O)CNC(=O)[C@@H](N)CO)[C@@H](C)O)[C@@H](C)CC)C(=O)N[C@@H](C)C(=O)N[C@@H](CCSC)C(=O)N[C@@H](CC(=O)O)C(=O)N[C@@H](CCCNC(=N)N)C(=O)N[C@H](C(=O)N[C@@H](CCCCNC(=O)COCCOCCNC(=O)COCCOCCNC(=O)CC[C@H](NC(=O)CCCCCCCCCCCCCCC(=O)O)C(=O)O)C(=O)N[C@@H](CCC(N)=O)C(=O)N[C@@H](CCC(N)=O)C(=O)N[C@@H](CC(=O)O)C(=O)N[C@@H](Cc1ccccc1)C(=O)N[C@H](C(=O)N[C@@H](CC(N)=O)C(=O)N[C@@H](Cc1c[nH]c2ccccc12)C(=O)N[C@@H](CC(C)C)C(=O)N[C@@H](CC(C)C)C(=O)N[C@@H](C)C(=O)N[C@@H](CCC(N)=O)C(=O)N[C@@H](CCCNC(=N)N)C(=O)O)C(C)C)[C@@H](C)CC` [AT277] (H-SGTFISDYSIAMDRIK([AEEA-AEEA-γGlu-C16 diacid])QQDFVNWLLAQR-OH; N-terminus assumed), the Emax in assay [1] stood at 8%; in assay [8], 9%. Besides, in assay [2] (COS-7 cells), the “GLP-1R, Antagonism, %inhib” value turned out to be 68%. Further, the “GLP-1R, Antagonism, index” value in assay [2] (selectivity index versus GIPR) stood at 561. Further, the “Glucagon R, Antagonism, nM” value in assay [3] was “No antagonism”. In addition, in assay [4], the “GLP-2R, Antagonism” value is recorded as “No antagonism”. Also, in assay [5], the “Secretin R, Antagonism” value is recorded as “No antagonism”. Besides, the IC50 came to 31.6 nM in assay [6] (GIPR, Antagonism, nM, Table 3C, CisBio assay); 31.6 nM in assay [6] (cAMP antagonism, nM (IC50), Table 1C, CisBio, HEK-293 cells, agonist GIP1-42 at EC50); 16 nM in assay [7]. In assay [6] (Table 1C, CisBio, HEK-293 cells), the “cAMP antagonism, % inhib” value was 84%. In addition, the “GIPR, Antagonism, % inhib” value in assay [6] (Table 3C, CisBio assay) worked out at 84%.

A word on the IC50: it is the concentration that inhibits the measured activity by half.
